This is an account of results in patent publication US20140018384A1, “QUINOLINONE DERIVATIVES FOR USE IN THE TREATMENT OF AN AUTOIMMUNE DISEASE AND/OR AN INFLAMMATORY DISEASE” (PRONOXIS AB, priority 2011, published 2014).

In assay [1] the test system is arthritogenic T cells. Description: Adoptive transfer of ex vivo treated arthritogenic T cells (splenocytes) to naive recipient DA rats. The format is in vivo, rat. Conditions: for T cells capacity to transfer arthritis to naive recipients: 12.5 μM substance, 44 hours ex vivo with ConA, cells injected i.p. into DA rats, FIGS. 2C and D. The protocol:
Arthritogenic cells were treated with H2O2 (176-1.76 μM) for 20 min and A) granulocytes and B) T cells (see FIGS. 1A and 1B) were investigated for intracellular ROS using a DHR-123 based flow cytometric assay. […] Arthritogenic cells were cultured in presence of Con A and w/wo H2O2 (176-1.76 μM) for 44 hours and then transferred to naïve recipient rats (n=7-9).
(§1) FIG. 2: ROS production and effect on T cell arthritogeniciy of ROS inducing substances. A-B). Thioglycolate recruited rat granulocytes (in accordance with the procedure in Biological Example 3) were treated with 25 μM substance and measurement of ROS production was initiated immediately using an isoluminol based chemiluminescence assay (FIGS. 2A and 2B). […] C-D) Arthritogenic rat splenocytes were treated with 12.5 μM substance during 44 hours ex vivo incubation in presence of ConA (FIGS. 2C and 2D). Following incubation, cells were washed and injected i.p. into naive recipient rats (n=8-11). Disease severity in recipient rats was followed by investigation of macroscopic swelling and redness of the rat joints. Treatment with substance during ex vivo stimulation prevented transfer of arthritogenic T cells.
In order to investigate the effect of ROS on T cell arthritogenicity, spleens were collected from arthritis susceptible DA rats injected with the arthritis inducing oil pristane (0.5 ml per rat s.c.) day −13. Single cell suspensions were prepared from the spleens and red blood cells were lysed. After wash, cells were resuspended in cell culture medium containing concanavalin A (ConA) to a final concentration of 4.5×10̂6 cells/ml. […] The cells were incubated for 44 hours at 37° C. After incubation the cells were washed and resuspended in PBS to a final concentration of 60*10̂6 cells/ml. Cells were injected i.p. (1 ml/rat) into naïve recipient DA rats and disease was followed by macroscopic evaluation of disease.
In order to investigate the effect of ROS inducing substances on T cell arthritogenicity, spleens were collected from arthritis susceptible DA rats injected with the arthritis inducing oil pristane (0.5 ml per rat s.c.) day −13. Single cell suspensions were prepared from the spleens and red blood cells were lysed.
After wash, cells were resuspended in cell culture medium containing concanavalin A (ConA) to a final concentration of 4.5×10̂6 cells/ml. Substance A or B was added to the cells to a final concentration of 12.5 μM. The cells were incubated for 44 hours at 37° C. Control cells were incubated in presence of vehicle control (DMSO). After incubation the cells were washed and resuspended in PBS to a final concentration of C) 30*10̂6 and D) 60*10̂6 cells/ml. Cells were injected i.p. (1 ml/rat) into naïve recipient DA rats and disease was followed by macroscopic evaluation of disease (n=8-11).

The subject of assay [2] is PLB-985 cells. Description: ROS production (isoluminol/HRP luminescence) in PLB-985 cells, Biological Example 1. The format is cell-based. Conditions: 25 μM compound vs. DMSO. The method, boiled down: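 Cells in HBSS received compound plus isoluminol and HRP; luminescence followed 10–30 min, AUC divided by control to give fold change in NADPH oxidase activity. HL-60: 50 μM compound vs blank; PLB-985: 25 μM compound vs blank or vs DMSO.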

Assay [3] relates to Rat granulocytes. Description: ROS production in thioglycollate-recruited rat granulocytes, isoluminol chemiluminescence assay. Format: cell-based. Particulars: 25 μM compound, compared to DMSO control cells; FIGS. 2A and B. The protocol:
as §1
Rat granulocytes were recruited to the peritoneum by an i.p. injection of 2.4% thioglycollate medium (autoclaved). The peritoneal cavity was washed after 24 hours with ice cold HBSS. Collected cells were, after lysis of red blood cells, washed and resupended in HBSS. In a total volume of 100 μl, compound (25 μM), isoluminol (0.175 mg/ml) and horseradish peroxidase (fraction II) (1.75 U/ml) was added to the cells (0.1*10̂6/well) and resulting ROS production detected as a luminescence signal (fluorescent unit, FU) over time. […] All samples were analysed at least in duplicates.

Assay [4] relates to HL-60 cells. Description: ROS production (isoluminol/HRP luminescence) in HL-60 cells, Biological Example 1. Conditions: Homo sapiens, 50 μM compound vs. blank, read-out: Activity A (fold increase of NADPH activity compared to control). Format: cell-based. On the procedure: To cells (HL-60 or PLB-985) in HBSS medium was added compound (25 or 50 μM), isoluminol and Horse Radish Peroxidase, fraction II. Luminescence was measured for 10-30 minutes and the area under the […] curve was divided by that from a control experiment to give the activity expressed as fold change.
Each assay indicated below was performed at a different site, at a different time, by different personnel and/or using different cell lines, concentrations and controls. The cell line, concentration of example compound and control used in respect of each assay were as indicated below. The values obtained from these different setups (each using an otherwise identical assay) are given as Activity A, B, C, D or E in Table 5 below. The values are expressed as fold increase of NADPH activity in the presence of the relevant of compound (as indicated below) compared to the relevant control (as indicated below).
Activity A: HL-60 cells; 50 μM compound vs. blank Activity B: PLB-985 cells; 25 μM compound vs. blank Activity C, D and E: PLB-985 cells; 25 μM compound vs. DMSO

Assay [5] concerns granulocytes and T cells. Particulars: H2O2 176-1.76 μM for 20 min.
Description: In order to measure the effect of exogenous ROS on intracellular ROS content, single cell suspensions were prepared from rat spleens. After lysis of red blood cells (0.84% ammonium chloride) the cells were stained with antibody His-48-bio (anti-granulocyte) or R73-bio (anti-T cell receptor) followed by staining with streptavidine-APC. Cells were then resuspended in DMEM containing DHR-123 and incubated for 10 minutes at 37° C. […] After 20 minutes incubation, cells were washed, resuspended in PBS and acquired in a FACScalibur. […] Samples were analysed in triplicates.
Where [6] appears, read: setup C, read-out: Activity C (fold increase of NADPH activity compared to control).

Like-named read-outs stand apart in the source and are kept apart here.

For the compound `O=C(Cn1cc(C(=O)c2ccc3ccccc3c2)c(=O)c2cc3c(cc21)OCO3)Nc1ccc(Cl)cc1` [Example 1, N-(4-Chlorophenyl)-2-[6,7-methylenedioxy-3-(2-naphthoyl)-4-oxo-1-quinolinyl]-acetamide], the “T cells capacity to transfer arthritis to naive recipients” value in assay [1] was “significantly alters the T cells capacity to transfer arthritis to naïve recipients”. The fold induction at 25 µM in assay [2] (setting [6]) came out at 45.3; in assay [2] (setup D, read-out: Activity D (fold increase of NADPH activity compared to control)) it was 27.4; in assay [2] (setup E, read-out: Activity E (fold increase of NADPH activity compared to control)) it was 8.5. The “cellular ROS production (luminescence signal over time)” value in assay [3] is on record as “clear induction of cellular ROS production”.
Regarding `Cc1ccc(C(=O)c2cn(CC(=O)Nc3ccc(F)c(F)c3)c3cc4c(cc3c2=O)OCO4)cc1` [Example 97, N-(3,4-Difluorophenyl)-2-(6,7-methylenedioxy-4-oxo-3-p-toluoyl-1-quinolinyl)acetamide], the fold induction at 50 µM in assay [4] amounted to 6.
For the compound `COc1ccc(NC(=O)Cn2cc(C(=O)c3ccccc3)c(=O)c3cc4c(cc32)OCO4)c(OC)c1` [Example 84, 2-(3-Benzoyl-6,7-methylenedioxy-4-oxo-1-quinolinyl)-N-(2,4-dimethoxyphenyl)acetamide], the “T cells capacity to transfer arthritis to naive recipients” value in assay [1] was “significantly alters the T cells capacity to transfer arthritis to naïve recipients”. Moreover, the fold induction at 25 µM in assay [2] (setting [6]) is 8.4. Further, in assay [3], the “cellular ROS production (luminescence signal over time)” value was “clear induction of cellular ROS production”.
With `CCOc1ccc(NC(=O)Cn2cc(C(=O)c3ccccc3)c(=O)c3cc4c(cc32)OCO4)cc1` [Example 99, 2-(3-Benzoyl-6,7-methylenedioxy-4-oxo-1-quinolinyl)-N-(4-ethoxyphenyl)acetamide], the fold induction at 50 µM in assay [4] was determined as 4.3.
Same read-out and setting: the value for `CCc1ccc(C(=O)c2cn(CC(=O)Nc3ccc(F)cc3)c3cc4c(cc3c2=O)OCO4)cc1` [Example 100, 2-[3-(4-Ethylbenzoyl)-6,7-methylenedioxy-4-oxo-1-quinolinyl]-N-(4-fluorophenyl)acetamide] was 2.9.
Take `OO` [Example H2O2, Hydrogen peroxide, reference compound]: the “mean arthritis severity in recipient rats” value in assay [1] (cells cultured 44 hours with Con A at lower concentrations of H2O2 (below 88 μM)) is “the effect is lost”; in assay [1] (cells cultured 44 hours with Con A in presence of 176 μM and 88 μM H2O2) it was “significant reduction”. In addition, the “intracellular ROS” value in assay [5] is recorded as “Intracellular ROS reflected amount of H2O2 added”.
